Values quoted from earlier work, collected in patent US20240230638A9, “SMALL MOLECULE SCREENING ASSAY FOR DIGITAL MICROFLUIDIC PLATFORM” (NICOYA LIFESCIENCES, INC., priority 2021, published 2024).

details: measure of hydrophobicity, literature values

octanol-water partitioning coefficients (logKow)	Structure (SMILES)
3.97	CC(C)Cc1ccc(C(C)C(=O)O)cc1 (stereo not shown) [Ibuprofen]
6.3	CC(C)/N=c1\cc2n(-c3ccc(Cl)cc3)c3ccccc3nc-2cc1Nc1ccc(Cl)cc1 [Clofazimine]
5.19	O=C(O)c1ccccc1Nc1cccc(C(F)(F)F)c1 [Flufenamic acid]

Structure (SMILES)	octanol-water partitioning coefficients (logKow)
NS(=O)(=O)c1ccccc1 [Benzenesulfonamide]	0.31
